2 molecules from publication PMC6143625, “A high throughput screen for next-generation leads targeting malaria parasite transmission” (Nature Communications, 2018) can be followed below.

Values joined by “and” are separate entries in the source; they are usually repeats but may differ in a detail not shown here. Equal values may be shown once.

The subject of one assay is NF54 stage V gametocytes. As to the kind of experiment: Gametocytocidal MitoTracker-based viability assay (SaLSSA). It is filed as cell-based, Plasmodium falciparum NF54. To be noted: Plasmodium falciparum, NF54; 72h incubation; read-out: Pf Stage V GCT (mitotracker assay) IC50. The procedure: As another independent assessment of the metabolic viability of compound-treated stage V gametocytes, the Saponin-lysis Sexual Stage Assay (SaLSSA) was employed. A volume of 100 nl of test compounds were pre-dispensed in 384-well plates (781091-2B, Greiner) in 12-point dose response (25 µM to 1.41 × 10^−4 µM), prior to the addition of synchronous NF54 stage V gametocytes (40 µl at 0.70% gametocytaemia). Assay plates were then incubated for 72 h in a low oxygen environment (92% N2, 5% CO2, 3%O2) before a 10 µl MitoTracker Red CMXRos (2.5 µM) and saponin solution (0.13%w/v) was added. Plates were returned to 37 °C for 1 h to allow for complete red blood cell lysis, after which viable gametocytes were detected using an Operetta high-content imaging system. Analysis was performed using the Harmony package software, with potency calculated relative to puromycin (positive control) and DMSO (negative control).

For assay [1], the system named is P. falciparum male gametocytes. Briefly: Pf DGFA wash-out format, male readout. It is filed as cell-based. To be noted: Plasmodium falciparum; 48h preincubation/wash-out.
Assay [2] has as its system P. falciparum female gametocytes. As to the kind of experiment: Pf DGFA wash-out format, female readout. As to conditions: Plasmodium falciparum; 48h preincubation/wash-out. The assay is classed as cell-based.
Assay [3] has as its system P. berghei-ANKA-GFP-Luc-SMCON sporozoites in HepG2-A16-CD81EGFP cells. Briefly: P. berghei liver stage assay (luciferase sporozoite HepG2 invasion). The assay is classed as cell-based. As to conditions: Plasmodium berghei, 48h incubation, read-out: Pb Liver invasion assay IC50. On the procedure: Compound inhibition of P. berghei sporozoite liver infection was assessed in a high-throughput luciferase assay. 1536-well plates (789173-F, Greiner Bio-One) were pre-seeded with 5 µl HepG2-A16-CD81^EGFP cells grown in DMEM (11965–092, Invitrogen) containing 10% FBS (35–011-CV, Corning) and 1× Pen Strep Glutamine (10378–016, Invitrogen). Then, 50 nl of compound in DMSO was dispensed in 12-point serial dilution dose-response format (50 µM to 2.82 × 10^−4 µM), and incubated overnight.A. stephensi mosquitoes infected with P. berghei-ANKA-GFP-Luc-SMCON (Pb-Luc)[41] sporozoites bearing the antifolate-resistance-conferring Toxoplasma gondii dihydrofolate reductase-thymidylate synthase selectable marker, pyR2. After dissection, ~1000 sporozoites in 5 µl screening media (DMEM, 11965–092, Invitrogen; 5% FBS, 35–011-CV, Corning; 5x Pen Strep Glutamine, 10378–016, Invitrogen) were added per well and incubated for 48 h (37 °C, 5% CO2). Bioluminescence was measured using an EnVision microplate reader (Perkin Elmer), following the addition of 2 µl per well of Bright-Glo™ (Promega). Compound toxicity against HepG2 cells was determined in parallel by measuring cellular ATP levels reported by luciferase activity. Methods were similar to the P. berghei liver stage assay, except for the addition of CellTiter-Glo® (Promega) as a detection reagent. DMSO (0.5%) was used as a negative control in both assays, with Atovaquone (5 µM) and Puromycin (10 µM) acting as positive controls in the P. berghei and toxicity assays, respectively.

In assay [4] the test system is P. berghei 507 strain in mice, transmission to Anopheles stephensi. As to the kind of experiment: P. berghei mosquito (direct) feeding assay in infected mice. It is filed as in vivo, Plasmodium berghei. As to conditions: for Asexual parasitemia (%) Before treatment / Gametocytemia (%) Before treatment / Asexual parasitemia (%) 24hr After treatment / Gametocytemia (%) 24hr After treatment: 50mg/kg; for Asexual parasitemia (%) Before treatment / Gametocytemia (%) Before treatment: baseline. The procedure: Six- to eight-week female T0 mice were treated with phenylhydrazine 3 days prior to intraperitoneal (IP) inoculation with 100 µl of mouse blood infected with the constitutively GFP expressing P. berghei 507 strain[39]. On day 3 after infection, thin blood smears were taken from tail blood to quantify parasitaemia and gametocytaemia. […] […] Twenty-four hours after feeding, unfed mosquitoes were removed and remaining mosquitoes maintained for a further 9 days on sucrose solution. Mosquito midguts were then dissected, imaged and oocysts quantified by semi-automated computer analysis.

For assay [5], the system named is P. falciparum male gametogenesis. As to the kind of experiment: Phenotypic immunofluorescence assay of male gamete formation. The assay is classed as cell-based, Plasmodium falciparum. As to conditions: 10 µM, 24 h treatment, 0–20 min post induction. The procedure: In vitro evolution followed by whole-genome analysis is the primary approach currently used for understanding how compounds act in malaria parasites. As it is not currently feasible to generate resistant mutants to compounds that are only active in the gametocyte stage (resistance generation requires extensive rounds of replication in the presence of compound), phenotypic immunofluorescence assays were performed to evaluate compound activity on male gamete formation. Gametocytes treated with 10 µM of each compound were sampled at 0, 2, 3, 4, 6, 8, 10, and 20 min post induction of gamete formation before imaging (Fig. 4). Individual male cells were then extracted from the images and analysed for shape and haploid chromosome number/DNA content to quantitatively measure the progression of DNA replication (n = 198–668 cells) (Fig. 5a).
Day 14 gametocyte culture was divided into 4 ml aliquots and treated either with DMSO or 10 µM test compound. After 24 h, 500 µl aliquots of the non-activated gametocytes were fixed in an equal volume of 8% paraformaldehyde (PFA) warmed to 37 °C to generate Time = 0 min (t = 0) samples. Gamete formation was induced in the remainder of the cultures by cooling to RT and addition of 500 µl ookinete medium. At t = 2, 3, 4, 6, 8, 10, and 20 min 500 µl of culture was removed and immediately fixed in equal volume of 8% PFA at room temperature for 15 min. Fixed cells were diluted in PBS and allowed to settle onto poly-L-lysine-coated glass coverslips overnight. The next day, cells were washed in PBS, permeabilized in 0.1% Triton X-100 and blocked in PBS + 10% FBS. Cells were stained with mouse anti-alpha tubulin (Sigma) clone DM1A (1:500 dilution) and rabbit anti-Glycophorin A (Abcam) clone EPR8200 (1:1000 dilution). Staining was visualised with anti-mouse […] and anti-rabbit Alexa555 (Thermo-Fisher) both at 1:1000 dilution. Coverslips were mounted onto glass slides with VectaShield mountant (Vector Laboratories) containing 4′,6-diamidino-2-phenylindole (DAPI) to visualise cellular DNA. Cells were imaged at random (n = 195–668 cells per test compound) using a Nikon Ti-E widefield microscope using a × 100 objective lens and taken in 0.2 µm slice z-stack images to capture the whole cell. All images were converted to maximum intensity projections in NIS Elements v4.20 and all further image processing performed in ICY. Individual cells were manually selected and automatically extracted from each image using the Active Contours plugin gated to the tubulin staining. Using the ROI Statistics plugin, the following parameters were calculated for each cell and exported to MS Excel: Cell area, Cell roundness, Cell elongation, and Average intensity of blue channel (DNA). […] Outlier cells from the curve were all exflagellating (Supplementary Fig. 6). These two parameters were combined as a ratio of roundness:elongation to produce the parameter Cell shape. Cellular DNA content was estimated by multiplying the average pixel intensity of the blue channel (after subtracting the background intensity of an empty area in the same parent image) with the total cell area.

The mark [6] stands for this setting: per mouse, listed as DDD291, 50 mg/kg.
The mark [7] stands for this setting: per mouse, listed as DDD504, 50 mg/kg.

Take `OC1(CN2CCC(Oc3cccc(C(F)(F)F)c3)CC2)CCNC1` (centres unmarked) [DDD01245291]: the IC50 with NF54 stage V gametocytes was more than 12.5 µM; in assay [1], 0.68 µM; in assay [2], 1.51 µM; in assay [3], 6.06 µM. For the same molecule, the “transmission blocking efficacy at the oocyst level” value in assay [4] (50 mg kg^−1 IP, 24 h before mosquito feeding) is “not possible to measure a reduction in transmission at the oocyst level”. Besides, in assay [4] (50 mg kg^−1 IP, 24 h exposure), the “suppression of gametocytaemia compared to vehicle-only controls” value was ~ 6 fold. The “effect on asexual parasitaemia” value in assay [4] (50 mg kg^−1 IP, single dose) was “did not affect asexual parasitaemia”. Also, in assay [4] (Dose 24hr prior to feeding, per mouse), the “Infection Prevalence (%)” value is reported as 100%. The “Mean oocysts per mosquito” value in assay [4] (Dose 24hr prior to feeding, per mouse, listed as DDD291) is 239.06 and 211.28. The “Asexual parasitemia (%) Before treatment” value in assay [4] (setting [6]) was 0.86% and 0.55%. In assay [4] (setting [6]), the “Gametocytemia (%) Before treatment” value is 0.32% and 0.16%. Moreover, in assay [4] (setting [6]), the “Asexual parasitemia (%) 24hr After treatment” value was 5.70% and 4.55%. Also, in assay [4] (setting [6]), the “Gametocytemia (%) 24hr After treatment” value was 0.30% and 0.51%. In assay [5], the “phenotype of male gametogenesis (IFA)” value is listed as “arrested after rounding up”.
For `CC(C)CN1CCn2nc(CNc3ncnc4[nH]ccc34)cc2C1` [DDD01249504], the concentration for half-maximal inhibition (IC50) with NF54 stage V gametocytes is more than 25 µM; in assay [1], 2.74 µM; in assay [2] it was more than 25 µM; in assay [3], more than 50 µM. Further, the “Asexual parasitemia (%) Before treatment” value in assay [4] (setting [7]) was 0.74% and 0.98%. For the same molecule, in assay [4] (setting [7]), the “Gametocytemia (%) Before treatment” value is 0.21% and 0.15%. Also, the “Asexual parasitemia (%) 24hr After treatment” value in assay [4] (setting [7]) was 5.35% and 7.03%. In assay [4] (setting [7]), the “Gametocytemia (%) 24hr After treatment” value was 1.21% and 1.88%. In addition, the “phenotype of male gametogenesis (IFA)” value in assay [5] was “the second and third divisions were delayed with a smaller proportion of cells reaching 8n”.

The term IC50 denotes the point on the concentration scale where inhibition reaches its midpoint.
